Patent publication US12194039B2, “Methods of treating heart failure by administering omecamtiv mecarbil” (Cytokinetics, Inc., priority 2020, dated 2025)
Where two headings read alike, the source gives them in different places.

Assays:
[1] = test system: patients with heart failure; settings: result in words; cited from earlier work
[2] = sensitive P-gp substrate digoxin 0.5 mg SD, with OM 50 mg SD
[3] = sensitive MATE 1/2K substrate metformin 850 mg SD, with OM 25 mg BID
[4] = sensitive CYP3A substrate midazolam 5 mg SD, with OM 25 mg BID
[5] = sensitive BCRP substrate rosuvastatin 10 mg SD, with OM 50 mg SD

For `C[C@H]1O[C@@H](O[C@H]2[C@@H](O)C[C@H](O[C@H]3[C@@H](O)C[C@H](O[C@H]4CC[C@@]5(C)[C@H](CC[C@@H]6[C@@H]5C[C@@H](O)[C@]5(C)[C@@H](C7=CC(=O)OC7)CC[C@]65O)C4)O[C@@H]3C)O[C@@H]2C)C[C@H](O)[C@@H]1O` [Digoxin], the “% Change of co-administered drug Cmax (↑ = increase)” value [2] was “↑8%”, the “Mean Ratio of co-administered drug AUC (90% CI)” value [2] was 1.06 (0.99-1.14) and the “Mean Ratio of co-administered drug Cmax (90% CI)” value [2] was 1.08 (0.92-1.26).
With `CN(C)C(=N)N=C(N)N` [Metformin] the “Mean Ratio of co-administered drug AUC (90% CI)” value [3] was 0.99 (0.92-1.05) and the “Mean Ratio of co-administered drug Cmax (90% CI)” value [3] was 1.10 (1.01-1.21).
In the case of `Cc1ncc2n1-c1ccc(Cl)cc1C(c1ccccc1F)=NC2` [Midazolam], the “% Change of co-administered drug AUC (↓ = decrease)” value [4] is reported as “↓18%”, the “% Change of co-administered drug Cmax (↓ = decrease)” value [4] is reported as “↓10%” and the “Mean Ratio of co-administered drug AUC (90% CI)” value [4] is reported as 0.82 (0.71-0.94). For the same compound, the “Mean Ratio of co-administered drug Cmax (90% CI)” value [4] was 0.90 (0.75-1.08).
With `CC(C)c1nc(N(C)S(C)(=O)=O)nc(-c2ccc(F)cc2)c1/C=C/[C@@H](O)C[C@@H](O)CC(=O)O` [Rosuvastatin] the “% Change of co-administered drug AUC (↑ = increase)” value [5] was “↑27%”, the “% Change of co-administered drug Cmax (↑ = increase)” value [5] was “↑45%” and the “Mean Ratio of co-administered drug AUC (90% CI)” value [5] was 1.27 (1.14-1.42). For the same compound, the “Mean Ratio of co-administered drug Cmax (90% CI)” value [5] was 1.54 (1.33-1.79).
For `COC(=O)Nc1c(N)nc(-c2nn(Cc3ccccc3F)c3ncc(F)cc23)nc1N` [vericiguat], the “Treatment efficacy at higher NT-proBNP concentrations” value [1] is listed as “declined”.
